Source: ChEMBL document CHEMBL1139416, “Synthesis of a C-glucosylated cyclopropylamide and evaluation as a glycogen phosphorylase inhibitor” (Bioorg Med Chem Lett, 2008)
Active and inactive are the calls of the source. The rule behind the calls is not given here.

Assays:
[1] = organism: Oryctolagus cuniculus; assay: Inhibition of rabbit muscle glycogen phosphorylase b at 625 uM
[2] = organism: Oryctolagus cuniculus; assay: Inhibition of rabbit muscle glycogen phosphorylase b at 2.5 mM

Activity [1]: inactive
inhibition [2]: 16%
Structure (SMILES): O=C(NC1([C@@H]2O[C@H](CO)[C@@H](O)[C@H](O)[C@H]2O)CC1)c1ccccc1
